This passage reports IC50 and Selectivity results from patent US10858342B2, “Bicyclic imidazole derivatives useful for the treatment of renal diseases, cardiovascular diseases and fibrotic diseases” (Boehringer Ingelheim International GmbH, priority 2016, dated 2020).

Read-outs that look alike come from different tables or passages of the source.

Type in all cases: biochemical, cynomolgus monkey
Experiment [1] concerns the target cortisol synthase (CYP11B1) (Macaca fascicularis, UniProt A0A2K5ULY1). The experiment is described as follows: Inhibition of cortisol synthesis (cynomolgus adrenal mitochondria, cortisol by mass spectrometry). As for the experimental part: The aldosterone synthase and cortisol synthase inhibition assays employ cynomolgus adrenal gland mitochondria as the source of aldosterone synthase (CYP11B2) and cortisol synthase (CYP11B1). Mitochondria are prepared from frozen cynomolgus monkey adrenal glands according to Method A described in by J. D. McGarry et al. (Biochem. J., 1983, 214, 21-28), with a final resuspension in the AT buffer described in R. Yamaguchi et al. (Cell Death and Differentiation, 2007, 14, 616-624), frozen as aliquots in liquid nitrogen and stored at −80° C. until use. One unit of CYP11B2 and CYP11B1 activity in these preparations is defined as the amount of enzyme that generates 1 pmol of product in one hour under the conditions described.
(§1) Assays are performed in 96-well format in a final volume of 60 microL/well, containing 100 mM potassium phosphate, pH 7.4, 1% (v/v) DMSO, and additionally, 2 μM of corticosterone and 50 units of CYP11B2 activity. Reactions are started by the addition of NADPH to 1 mM and allowed to proceed for 90 minutes at 37° C. Reactions are terminated by the addition of 60 μL of MeCN containing an internal standard for mass spectrometry. One hundred microliters are then transferred to a glass filter plate and centrifuged at 570×g for 5 minutes and the filtrate is collected. Reaction product aldosterone is quantified by mass spectrometry. To determine the assay blank value (0% activity), NADPH is omitted from some reactions.
Dose dependent inhibition is quantified by the inclusion of compound at various concentrations. Maximum activity (100%) is defined by reactions containing NADPH, but without compound. Activities at each concentration are expressed as a percentage of the maximum activity (y-axis) and plotted against concentration of compound (x-axis) and the concentration corresponding to 50% activity (IC50) determined using the XLFit curve-fitting program using a 4-parameter logistic model.
Assays are performed as for aldosterone synthase except for the use of 150 units of CYP11B1, 11-deoxycortisol as substrate and cortisol measured as product.

In experiment [2] the test system is aldosterone synthase (CYP11B2). The experiment is described as follows: Inhibition of aldosterone synthase (cynomolgus adrenal mitochondria, aldosterone by mass spectrometry). Conditions: selectivity for aldosterone synthase inhibition over cortisol synthase (CYP11B1) inhibition, fold. On the procedure: (§2) The aldosterone synthase and cortisol synthase inhibition assays employ cynomolgus adrenal gland mitochondria as the source of aldosterone synthase (CYP11B2) and cortisol synthase (CYP11B1). […] One unit of CYP11B2 and CYP11B1 activity in these preparations is defined as the amount of enzyme that generates 1 pmol of product in one hour under the conditions described.
(§3) The compounds of the invention may be evaluated for aldosterone synthase inhibition by the following assay:
as §1
(§4) Dose dependent inhibition is quantified by the inclusion of compound at various concentrations. Maximum activity (100%) is defined by reactions containing NADPH, but without compound.

In experiment [3] the target is aldosterone synthase (CYP11B2) (Macaca fascicularis, UniProt A0A2K5UPL9). The description is as above. To be noted: 2 μM corticosterone substrate, 50 units CYP11B2, 90 min, 37° C.; read-out: Aldosterone Inhibition IC50. As for the experimental part:
as §2, §3, §1, §4

Setting [4] is: read-out: Cortisol Inhibition IC50; 11-deoxycortisol substrate, 150 units CYP11B1.
Setting [5] is: 11-deoxycortisol substrate, 150 units CYP11B1; read-out: Cortisol Inhibition IC50.

Sequence of aldosterone synthase (CYP11B2) (Macaca fascicularis, UniProt A0A2K5UPL9) (A0A2K5UPL9 1-503): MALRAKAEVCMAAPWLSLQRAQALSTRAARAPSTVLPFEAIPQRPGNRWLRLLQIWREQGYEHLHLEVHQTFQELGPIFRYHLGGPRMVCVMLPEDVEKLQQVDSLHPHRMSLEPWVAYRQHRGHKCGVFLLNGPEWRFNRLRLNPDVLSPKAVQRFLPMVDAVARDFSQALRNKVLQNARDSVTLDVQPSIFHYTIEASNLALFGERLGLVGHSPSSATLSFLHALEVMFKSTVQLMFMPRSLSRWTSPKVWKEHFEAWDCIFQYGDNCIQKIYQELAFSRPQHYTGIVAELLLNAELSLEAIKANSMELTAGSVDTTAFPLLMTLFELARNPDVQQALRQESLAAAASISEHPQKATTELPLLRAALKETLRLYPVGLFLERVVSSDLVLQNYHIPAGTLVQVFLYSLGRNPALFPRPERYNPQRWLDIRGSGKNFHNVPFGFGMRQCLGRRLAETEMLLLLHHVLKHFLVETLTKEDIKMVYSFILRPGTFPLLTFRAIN

In general, IC50 refers to the concentration that gives 50% inhibition. `CNC(=O)[C@H]1CC(=O)c2c(ncn2-c2ccc(C#N)c(Cl)c2)C1` [C-AEH, (R)-1-(3-Chloro-4-cyano-phenyl)-7-oxo-4,5,6,7-tetrahydro-1H-benzoimidazole-5-carboxylic acid methylamide]: the IC50 in experiment [1] (setting [4]) is above 30 µM; in experiment [3] it was 57 nM. Also, the Selectivity in experiment [2] amounted to 526.
Turning to `Cc1nnsc1Cn1cnc2c1C(=O)CC(C)(C)C2` [C-ADC, 6,6-Dimethyl-3-(4-methyl-[1,2,3]thiadiazol-5-ylmethyl)-3,5,6,7-tetrahydro-benzoimidazol-4-one], the results for the IC50 in experiment [1] (setting [5]) and in experiment [3] were 45 µM and 250 nM, respectively. This compound also showed a Selectivity in experiment [2] of 180.
Consider `O=C1CCCc2ncn(C3Cc4ccccc4C3)c21` [C-ADK, 3-Indan-2-yl-3,5,6,7-tetrahydro-benzoimidazol-4-one], for which the values for the IC50 in experiment [1] (setting [5]) and in experiment [3] were 8.4 µM and 21 nM, respectively. The compound further had a Selectivity in experiment [2] of 400.
The matching figures for `CC1(C)CC(=O)c2c(ncn2C2CCCCc3ccccc32)C1` (stereo not drawn) [C-ACW, 6,6-Dimethyl-3-(6,7,8,9-tetrahydro-5H-benzocyclohepten-5-yl)-3,5,6,7-tetrahydro-benzoimidazol-4-one]: 7.2 µM, 24 nM and 300.
In the case of `N#Cc1ccc(-n2cnc3c2C(=O)CC2(CCOCC2)C3)cc1` [C-AAS, 4-(7-Oxospiro[4,6-dihydrobenzimidazole-5,4′-tetrahydropyran]-1-yl)benzonitrile], the IC50 in experiment [1] (setting [5]) was 14 µM; in experiment [3], 240 nM. In addition, the Selectivity in experiment [2] is listed as 61.
For `CC1(C)CC(=O)c2c(ncn2CC2CCOC2)C1` (stereo not drawn) [C-ACX, 6,6-Dimethyl-3-(tetrahydro-furan-3-ylmethyl)-3,5,6,7-tetrahydro-benzoimidazol-4-one], the IC50 was above 30 µM in experiment [1] (setting [5]) and 870 nM in experiment [3]. This compound also registered a Selectivity in experiment [2] of 35.
For `CC1(C)CC(=O)c2c(ncn2-c2ccc(Cl)nc2)C1` [C-ABT, 3-(6-Chloro-pyridin-3-yl)-6,6-dimethyl-3,5,6,7-tetrahydro-benzoimidazol-4-one] the same measures were 6.9 µM, 230 nM and 30.
For `CC(C)Oc1ccc(-n2cnc3c2C(=O)CC(C)(C)C3)cc1Cl` [C-ABJ, 3-(3-Chloro-4-isopropoxy-phenyl)-6,6-dimethyl-3,5,6,7-tetrahydro-benzoimidazol-4-one] the same measures were 95 µM, 75 nM and 1300.
Regarding `CC(=O)c1ccc(-n2cnc3c2C(=O)CC(C)(C)C3)cc1` [C-ABL, 3-(4-Acetyl-phenyl)-6,6-dimethyl-3,5,6,7-tetrahydro-benzoimidazol-4-one], the figures for the IC50 in experiment [1] (setting [5]) and in experiment [3] were 8.8 µM and 59 nM, respectively. This compound gave a Selectivity in experiment [2] of 150.
Take `CC1(C)CC(=O)c2c(ncn2Cc2ccc(C(C)(C)O)cc2)C1` [C-ADV, 3-[4-(1-Hydroxy-1-methyl-ethyl)-benzyl]-6,6-dimethyl-3,5,6,7-tetrahydro-benzoimidazol-4-one]: the IC50 in experiment [1] (setting [5]) is 0.035 µM; in experiment [3], 25 nM. The same compound showed a Selectivity in experiment [2] of 1.4.
With `Cc1ccc(-n2cnc3c2C(=O)CC(C)(C)C3)cc1` [C-ACB, 6,6-Dimethyl-3-p-tolyl-3,5,6,7-tetrahydro-benzoimidazol-4-one], the IC50 in experiment [1] (setting [5]) came to 4.4 µM; in experiment [3], 22 nM. In experiment [2], this compound displayed a Selectivity of 200.
For `CC1(C)CC(=O)c2c(ncn2C2CCc3ccccc3C2)C1` (stereo not drawn) [C-ADH, 6,6-Dimethyl-3-(1,2,3,4-tetrahydro-naphthalen-2-yl)-3,5,6,7-tetrahydro-benzoimidazol-4-one] the same measures were 29 µM, 10 nM and 2900.
The matching figures for `Cn1ncc2cc(-n3cnc4c3C(=O)CCC4)ccc21` [C-AAG, 3-(1-Methyl-1H-indazol-5-yl)-3,5,67,-tetrahydro-benzoimidazol-4-one]: above 30 µM, 100 nM and 300.
The matching figures for `CN1C(=O)CCc2cc(-n3cnc4c3C(=O)CCC4)ccc21` [C-ACD, 1-Methyl-6-(7-oxo-4,5,6,7-tetrahydro-benzoimidazol-1-yl)-3,4-dihydro-1H-quinolin-2-one]: 55 µM, 60 nM and 920.
For `CC1(C)CC(=O)c2c(ncn2-c2cccc(Cl)c2Cl)C1` [C-ABF, 3-(2,3-Dichloro-phenyl)-6,6-dimethyl-3,5,6,7-tetrahydro-benzoimidazol-4-one], the IC50 turned out to be 0.61 µM in experiment [1] (setting [5]) and 3.8 nM in experiment [3]. This compound also registered a Selectivity in experiment [2] of 160.
For `CN1Cc2cc(-n3cnc4c3C(=O)CCC4)ccc2CC1=O` [C-AAC, 2-Methyl-7-(7-oxo-4,5,6,7-tetrahydro-benzoimidazol-1-yl)-1,4-dihydro-2H-isoquinolin-3-one] the same measures were above 30 µM, 720 nM and 42.
The matching figures for `COC(=O)c1ccc(-n2cnc3c2C(=O)CC(C)(C)C3)cc1` [C-ABW, 4-(5,5-Dimethyl-7-oxo-4,5,6,7-tetrahydro-benzoimidazol-1-yl)-benzoic acid methyl ester]: 7.5 µM, 310 nM and 24.
On to `Cn1ncc2c1CC(n1cnc3c1C(=O)CCC3)CC2` (stereo not drawn) [C-AEF, 3-(1-Methyl-4,5,6,7-tetrahydro-1H-indazol-6-yl)-3,5,6,7-tetrahydro-benzoimidazol-4-one], for which the figures for the IC50 in experiment [1] (setting [5]) and in experiment [3] were above 30 µM and 190 nM, respectively. In addition, in experiment [2], the Selectivity worked out at 160.
On to `N#Cc1ccc(-n2cnc3c2C(=O)CC2(CC2)C3)cc1Cl` [C-AAW, 3-(3-Chloro-4-cyano)-6,6-spirocyclopropyl-3,5,6,7-tetrahydrobenzimidazol-4-one], for which the IC50 stood at 0.22 µM in experiment [1] (setting [4]) and 5 nM in experiment [3]. For the same compound, in experiment [2], the Selectivity was found to be 43.
For `N#Cc1ccc(-n2cnc3c2C(=O)C[C@H](C(N)=O)C3)cc1Cl` [C-AEB-B, (R)-1-(3-Chloro-4-cyano-phenyl)-7-oxo-4,5,6,7-tetrahydro-1H-benzoimidazole-5-carboxylic acid amide] the same measures were above 30 µM, 32 nM and 940.
As to `CC1(C)CC(=O)c2c(ncn2[C@H]2C[C@@H]3CC[C@H]2C3)C1` [C-ACL, 3-(1S,2S,3R)-Bicyclo[2.2.1]hept-2-1-6,6-dimethyl-3,5,6,7-tetrahydro-benzoimidazol-4-one], the figures for the IC50 in experiment [1] (setting [5]) and in experiment [3] were 16 µM and 180 nM, respectively. In experiment [2], this compound had a Selectivity of 87.
For `O=C1CCCc2ncn(C3CCc4ccccc4C3)c21` (stereo not drawn) [C-ADJ, 3-(1,2,3,4-Tetrahydro-naphthalen-2-yl)-3,5,6,7-tetrahydro-benzoimidazol-4-one], the IC50 was 1.2 µM in experiment [1] (setting [5]) and 2.8 nM in experiment [3]. In addition, the Selectivity in experiment [2] came out at 420.
The matching figures for `CN(CCO)C(=O)c1ccc(Cn2cnc3c2C(=O)CC(C)(C)C3)cc1` [C-ADS, 4-(5,5-Dimethyl-7-oxo-4,5,6,7-tetrahydro-benzoimidazol-1-ylmethyl)-N-(2-hydroxy-ethyl)-N-methyl-benzamide]: 43 µM, 290 nM and 150.
For the compound `CC1(C)CC(=O)c2c(ncn2Cc2ccc(F)cc2)C1` [C-ADO, 3-(4-Fluoro-benzyl)-6,6-dimethyl-3,5,6,7-tetrahydro-benzoimidazol-4-one], the IC50 in experiment [1] (setting [5]) is 5.4 µM; in experiment [3] it was 56 nM. The Selectivity in experiment [2] was determined as 96.
The matching figures for `CC1(C)CC(=O)c2c(ncn2-c2ccc(Cl)cc2Cl)C1` [C-ABG, 3-(2,4-Dichloro-phenyl)-6,6-dimethyl-3,5,6,7-tetrahydro-benzoimidazol-4-one]: 0.5 µM, 4.2 nM and 120.
